Experimental data from patent US20250186450A1, “COMBINATION THERAPY COMPRISING DGK INHIBITORS and PD-1/PD-L1 INHIBITORS” (Incyte Corporation, priority 2023, published 2025).

Key:
[1] = target: DGKα (Homo sapiens (Human), UniProt P23743); test: In vitro DGKα inhibition assay (ADP-Glo); format: biochemical; conditions: 0.1 nM DGKα, 50 μM ATP, 20 μM DLG
Method: (§1) The DGKα and DGKζ biochemical reactions were performed using His-tagged human recombinant enzymes (Signal Chem, DGKα, #D21-10BH; DGKζ, #D30-10H)) and DLG (Dilauroyl-sn-glycerol) lipid substrate (Signal Chem, #D430-59). ADP-Glo assay was performed using ADP-Glo™ kinase Assay kit (Promega, #V9104). The reactions were carried out in assay buffer containing 40 mM Tris, pH 7.5, 0.1% CHAPS, 0.1% Prionex, 40 mM NaCl, 5 mM MgCl2, 1 mM CaCl2, and 1 mM DTT. DGKα reactions contained 0.1 nM DGKα, 50 μM ATP, and 20 μM DLG. And DGKζ reactions contained 0.4 nM DGKζ, 30 μM ATP, and 20 μM DLG.
(§2) For compound inhibition studies, 40 nL test compound in DMSO was added to wells of white polystyrene plates in 384-well (Greiner, #784075) or 1536-well format (Greiner, #782075). Compounds were added with top concentration of 2 mM with 11 point, 3-fold dilution series. Enzyme solution (contains 2×DGK enzyme concentration in 1× assay buffer) was added to the plate in 2 μL/well volume, followed by 2 μL/well of substrate solution (contains 2× concentration of ATP and DLG substrate in 1× assay buffer). Plates were then centrifuged for 1 min at 1200 RPM and sealed or lidded. For 4 μL reaction volume, test compounds were therefore diluted 100× to final top concentration of 20 μM. After 90 minute incubation, reactions were quenched by addition of 2 μL/well Promega ADP-Glo Reagent, followed by centrifugation and lidding. After 60 min incubation, 2 μL/well Promega Kinase Detection Reagent was added, plates centrifuged, and incubated for 30 min. Plates were then read using Luminescence method on BMG PHERAstar FSX plate reader. Percent inhibition was calculated and IC50s were determined using 4-parameter fit in Genedata Screener. Labcyte Echo acoustic dispenser was used for compound addition, and Formulatrix Tempest liquid handler was used for all reagent dispenses.

[2] = target: DGKζ (Homo sapiens (Human), UniProt Q13574); test: In vitro DGKζ inhibition assay (ADP-Glo); format: biochemical; conditions: 0.4 nM DGKζ, 30 μM ATP, 20 μM DLG
Chain of DGKζ (Q13574 whole entry): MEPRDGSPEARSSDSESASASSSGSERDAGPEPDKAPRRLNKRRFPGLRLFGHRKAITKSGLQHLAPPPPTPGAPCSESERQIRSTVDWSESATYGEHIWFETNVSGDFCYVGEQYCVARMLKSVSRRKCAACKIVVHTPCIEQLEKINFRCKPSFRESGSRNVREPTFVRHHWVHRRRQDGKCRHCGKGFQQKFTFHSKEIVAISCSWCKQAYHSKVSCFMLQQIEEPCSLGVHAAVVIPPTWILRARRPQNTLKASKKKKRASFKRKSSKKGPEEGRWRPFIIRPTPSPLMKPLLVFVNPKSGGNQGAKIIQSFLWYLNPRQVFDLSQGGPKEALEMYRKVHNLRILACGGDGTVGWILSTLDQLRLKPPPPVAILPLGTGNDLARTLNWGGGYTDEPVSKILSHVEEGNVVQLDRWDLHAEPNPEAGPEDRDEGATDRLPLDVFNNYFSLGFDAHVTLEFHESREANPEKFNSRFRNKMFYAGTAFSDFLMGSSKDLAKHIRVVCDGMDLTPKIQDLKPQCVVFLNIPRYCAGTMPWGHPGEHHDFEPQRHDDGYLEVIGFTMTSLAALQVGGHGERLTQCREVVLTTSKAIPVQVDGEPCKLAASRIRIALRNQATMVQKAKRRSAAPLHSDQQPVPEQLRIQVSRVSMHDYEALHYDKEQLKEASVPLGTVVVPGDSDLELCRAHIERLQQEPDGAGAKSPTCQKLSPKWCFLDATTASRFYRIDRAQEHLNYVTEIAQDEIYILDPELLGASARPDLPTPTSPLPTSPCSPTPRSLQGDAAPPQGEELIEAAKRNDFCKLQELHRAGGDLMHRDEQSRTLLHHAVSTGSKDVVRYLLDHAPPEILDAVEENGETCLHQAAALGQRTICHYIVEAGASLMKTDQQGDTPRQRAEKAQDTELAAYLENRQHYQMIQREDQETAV
Method: as §1, §2

Chain of DGKα (P23743 whole entry): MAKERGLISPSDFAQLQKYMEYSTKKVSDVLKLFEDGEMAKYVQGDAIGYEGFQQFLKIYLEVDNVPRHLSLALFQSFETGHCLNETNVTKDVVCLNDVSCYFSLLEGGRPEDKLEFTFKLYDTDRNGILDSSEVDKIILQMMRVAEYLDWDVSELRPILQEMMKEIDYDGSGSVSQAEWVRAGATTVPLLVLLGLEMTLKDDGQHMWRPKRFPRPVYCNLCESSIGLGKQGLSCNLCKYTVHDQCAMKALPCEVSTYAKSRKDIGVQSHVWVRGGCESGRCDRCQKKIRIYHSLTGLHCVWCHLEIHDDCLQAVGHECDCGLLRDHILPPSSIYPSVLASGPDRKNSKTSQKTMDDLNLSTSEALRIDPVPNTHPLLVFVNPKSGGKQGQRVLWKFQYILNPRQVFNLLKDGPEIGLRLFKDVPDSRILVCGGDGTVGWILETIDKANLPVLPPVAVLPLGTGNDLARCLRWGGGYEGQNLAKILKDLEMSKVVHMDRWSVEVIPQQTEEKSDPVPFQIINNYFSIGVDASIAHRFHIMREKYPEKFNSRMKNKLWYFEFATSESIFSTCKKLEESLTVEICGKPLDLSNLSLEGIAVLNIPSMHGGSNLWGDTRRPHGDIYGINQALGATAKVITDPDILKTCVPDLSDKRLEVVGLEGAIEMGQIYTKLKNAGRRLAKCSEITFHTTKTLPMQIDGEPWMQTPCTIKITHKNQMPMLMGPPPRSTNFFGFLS

SMILES	IC50 [1]	IC50 [2]
C[C@@H]1CN(c2nc3nncn3c3c2ncn3C[C@@H]2CCCO2)[C@@H](C)CN1C(c1ccc(Cl)cc1)[C@@H]1CC1(F)F (single isomer, unassigned) [Example 7]	≤ 20 nM	≤ 20 nM
C[C@@H]1CN(c2cc3nncn3c3c2ncn3C[C@@H]2CCCO2)[C@@H](C)CN1C(c1ccc(Cl)cc1)[C@@H]1CC1(F)F (single isomer, unassigned) [Example 18]	≤ 20 nM	20 to 200 nM
Cc1nc2c(N3C[C@@H](C)N(C(c4ccc(Cl)cc4)c4ccc(Cl)cc4)C[C@@H]3C)nc3nncn3c2n1C[C@@H]1CCCO1 [Example 5, 4-((2S,5R)-4-(Bis(4-chlorophenyl)methyl)-2,5-dimethylpiperazin-1-yl)-2-methyl-1-(((S)-tetrahydrofuran-2-yl)methyl)-1H-[1,2,4]triazolo[3,4-b]purine]	≤ 20 nM	≤ 20 nM
CC[C@@H]1CN(c2cc3nncn3c3c2nc(C)n3C[C@@H]2CCCO2)[C@@H](C)CN1C(c1ccc(Cl)cc1)C1CC(F)(F)C1 (single isomer, unassigned) [Example 19]	≤ 20 nM	≤ 20 nM
C[C@@H]1CN(c2nc3nncn3c3c2ncn3C[C@@H]2CCCO2)[C@@H](C)CN1C(c1ccc(Cl)cc1)[C@H]1CC1(F)F (single isomer, unassigned) [Example 8]	≤ 20 nM	≤ 20 nM
Cc1nc2c(N3C[C@@H](C)N(C(c4ccc(Cl)c(F)c4)C4CC(F)(F)C4)C[C@@H]3C)nc3nncn3c2n1C[C@@H]1CCCO1 (single isomer, unassigned) [Example 4]	≤ 20 nM	≤ 20 nM
CC[C@@H]1CN(c2nc3nncn3c3c2ncn3C[C@@H]2CCCO2)[C@@H](C)CN1C(c1ccc(Cl)cc1)C1CC(F)(F)C1 (stereo partly drawn) [Example 13, 4-((2S,5R)-4-((4-Chlorophenyl)(3,3-difluorocyclobutyl)methyl)-5-ethyl-2-methylpiperazin-1-yl)-1-(((S)-tetrahydrofuran-2-yl)methyl)-1H-[1,2,4]triazolo[3,4-b]purine]	≤ 20 nM	≤ 20 nM

Now from value to compound:

IC50 [1]	IC50 [2]	SMILES
≤ 20 nM	≤ 20 nM	Cc1nc2c(N3C[C@@H](C)N(C(CC(C)C)c4ccc(Cl)c(F)c4)C[C@@H]3C)nc3nncn3c2n1C[C@@H]1CCCO1 (single isomer, unassigned) [Example 11]
≤ 20 nM	≤ 20 nM	Cc1nc2c(N3C[C@@H](C)N(C(c4ccc(F)c(Cl)c4)C4CC(F)(F)C4)C[C@@H]3C)nc3nncn3c2n1C[C@@H]1CCCO1 (single isomer, unassigned) [Example 3]
≤ 20 nM	≤ 20 nM	C[C@@H]1CN(c2nc3nncn3c3c2ncn3C[C@@H]2CCCO2)[C@@H](C)CN1C(c1ccc(Cl)cc1)C1CC(F)(F)C1 (stereo partly drawn) [Example 12, 4-((2S,5R)-4-((4-Chlorophenyl)(3,3-difluorocyclobutyl)methyl)-2,5-dimethylpiperazin-1-yl)-1-(((S)-tetrahydrofuran-2-yl)methyl)-1H-[1,2,4]triazolo[3,4-b]purine]
≤ 20 nM	≤ 20 nM	C[C@@H]1CN(c2nc3nncn3c3c2ncn3C[C@@H]2CCCO2)[C@@H](C)CN1C(c1ccc(C(F)(F)F)cc1)C1CC(F)(F)C1 (single isomer, unassigned) [Example 6]
≤ 20 nM	≤ 20 nM	C[C@@H]1CN(c2cc3nncn3c3c2ncn3C[C@@H]2CCCO2)[C@@H](C)CN1C(c1ccc(Cl)cc1)C1CC(F)(F)C1 (single isomer, unassigned) [Example 22]
≤ 20 nM	≤ 20 nM	Cc1nc2c(N3C[C@@H](C)N(C(c4ccc(Cl)cc4)C4CC(F)(F)C4)C[C@@H]3C)cc3nncn3c2n1C[C@@H]1CCCO1 (single isomer, unassigned) [Example 23]
≤ 20 nM	≤ 20 nM	Cc1nc2c(N3C[C@@H](C)N(Cc4ccc(C(F)(F)F)cc4F)C[C@@H]3C)nc3nncn3c2n1C[C@@H]1CCCO1 [Example 14, 4-((2S,5R)-4-(2-Fluoro-4-(trifluoromethyl)benzyl)-2,5-dimethylpiperazin-1-yl)-2-methyl-1-(((S)-tetrahydrofuran-2-yl)methyl)-1H-[1,2,4]triazolo[3,4-b]purine]
